Consider 15 compounds from US3954780A, “Propionic acid derivatives” (Innothera, priority 1970, dated 1976).

In brackets after ≈: the same amount, converted by molar mass. Several values for one entry are separate records, joined by “and”; a condition that tells them apart may be missing. Equal values may be shown once. Where a name gives a salt, the structure may show the parent alone. Read-outs that look alike come from different tables or passages of the source.

Series [1] can be described thus: Acute toxicity in the mouse (DL50, method of Miller and Tainter). As to conditions: in vivo, read-out: DL 50 (the source's name). The source says: The acute toxicity of the amine ester derivatives of β-[ benzo(b)thienyl-3]propionic acid have been studied in the mouse by intraperitoneal and oral routes, the products being administered in an isotonic solution of sodium chloride, 0.9%, or in suspension in a dilute aqueous solution of carboxymethyl cellulose.
The calculation of the DL50 has been effected according to the method of MILLER and TAINTER (MILLER. L.C., TAINTER M.L. - Proc. Soc. Exptl. Biol. Med. 1944-57-261,264).

Another series has as its system isolated rat duodenum. Description: Spasmolytic activity of papaverinic type, barium chloride contracture. The settings on record: Tyrode 38°; for EC50: read-out: Spasmolytic activity Papaverinic type DE 50 (converted). The protocol:
a. To show activity of the papaverinic type, the contracturant used is barium chloride acting on the isolated rat duodenum.
The average activity of the substances studied has been effected by determining graphically their DE 30 and DE 50 these being expressed in μg for 20 ml of bath.

The subject of series [2] is isolated ileum of the guinea-pig. Description: Spasmolytic activity of atropinic type, acetylcholine chloride contracture. The settings on record: Tyrode 33°; for EC50: Cavia porcellus, read-out: Spasmolytic activity Atropinic type DE 50 (converted). From the text: b. To show activity of atropinic type the contracturant used is acetylcholine chloride acting on the isolated ileum of the guinea-pig. […]

Series [3] concerns acute oedema provoked by serotonine in the rat. Description: Anti-serotonic activity, serotonine-induced acute paw oedema. It is filed as in vivo. As to conditions: 30 minutes before serotonine. The protocol:
This has been researched in the rat by the technique of the acute oedema localised in the metatarsal region, provoked by the injection of 0.05 ml of a 0.01% solution of serotonine (sulphate of 5-hydroxy-tryptamine-creatinine) in an isotonic solution of sodium chloride.
The plethysmometric measurements of the paw having been subjected to the injection have been effected before, and at different times after, the injection of the serotonine.
The derivatives to be studied have been administered by the oral route 30 minutes before the serotonine.

The next series deals with skin reflex. Description: Local anaesthetic activity, conduction anaesthesia (method of Moukhtar). The class given is in vivo. From the text: The method of MOUKHTAR has been chosen to show the activity of the derivatives studied on conduction anaesthesia (A. MOUKHTAR, C.R. Soc. Biol. 1909-66-187,189).
The reference local anaesthetic substance used in the tests has in each case been procaine hydrochloride in 0.5% solution in an 0.9% isotonic solution of NaCl. The three concentrations used to study the local anaesthetic activity of the new derivatives are 0.50, 0.25 and 0.10%, the vehicle being the isotonic 0.9% solution of NaCl.
The average anaesthetic activity of the substances chosen is expressed comparatively to that of the reference product chosen, by calculating the ratio of the average number n of the stimulations necessary to obtain the appearance of the skin reflex in the case of the derivatives studied, to the average number (n') of the stimulation determined for the reference substance.
The procaine hydrochloride and the derivatives studied are administered by the intradermal route at the rate of 0.20 ml per injection.

Setting [4] is: 0.10 g/100 ml, intradermal 0.20 ml.
The mark [5] stands for this setting: 0.25 g/100 ml, intradermal 0.20 ml.
Where [6] appears, read: 0.50 g/100 ml, intradermal 0.20 ml.
The mark [7] stands for this setting: derivative 0.10 g/100 ml vs procaine hydrochloride 0.50 g/100 ml.
Where [8] appears, read: derivative 0.25 g/100 ml vs procaine hydrochloride 0.50 g/100 ml.
[9] abbreviates: derivative 0.50 g/100 ml vs procaine hydrochloride 0.50 g/100 ml.

Regarding `C=CCC(Cc1csc2ccccc12)C(=O)OC(C)CN1CCCC1` (centres unmarked) [Compound 11], the LD50 in series [1] (ip) turned out to be 270 ± 59 mg/kg. Besides, in the series on isolated rat duodenum, the “Spasmolytic activity Papaverinic type DE 30” value is on record as 4.0 μg for 20 ml of bath and the EC50 was 0.6 µg/mL (≈ 1.68 µM).
As for `O=C(OCCN1CCCC1)C(Cc1csc2ccccc12)CC1CCCO1` (centres unmarked) [Compound 49], in series [1] (ip), the LD50 was found to be 140 ± 9 mg/kg. Besides, the LD50 in series [1] (v.o. (oral) route) is ~650 mg/kg. In addition, in the series on isolated rat duodenum, the “Spasmolytic activity Papaverinic type DE 30” value was 1.6 μg for 20 ml of bath and the EC50 was 0.185 µg/mL (≈ 0.477 µM). Further, in series [2], the EC50 was 1.4 µg/mL (≈ 3.61 µM) and the “Spasmolytic activity Atropinic type DE 30” value was 21 μg/20 ml of bath. For the same compound, in series [3] (30 mg/kg oral), the “average percentage reduction in oedema after 1 hour” value is 17.8% and the “average percentage reduction in oedema after 2 hours” value was 12.6%.
Consider `C=CCC(Cc1csc2ccccc12)C(=O)OCCCN(CC)CC` (stereo not drawn) [Compound 7, citrate of the N,N-diethylamino propyl esters of x-allyl-β-[benzo(b)thienyl-3]propionic acid], for which the LD50 amounted to 210 ± 10 mg/kg in series [1] (ip) and 1290 ± 80 mg/kg in series [1] (v.o. (oral) route). Also, in the series with isolated rat duodenum, the “Spasmolytic activity Papaverinic type DE 30” value is 2.2 μg for 20 ml of bath. The values for the EC50 (in the series with isolated rat duodenum; in series [2]) were 0.225 µg/mL and 16.2 µg/mL, respectively. Also, the “Spasmolytic activity Atropinic type DE 30” value in series [2] is recorded as 170 μg/20 ml of bath. The “average percentage reduction in oedema after 1 hour” value in series [3] (50 mg/kg oral) was found to be 27.6%. Moreover, the “average percentage reduction in oedema after 2 hours” value in series [3] (50 mg/kg oral) turned out to be 36.6%. Moreover, the “average number of stimulations for the derivative studied n” value in the series on skin reflex (setting [4]) was determined as 12.2; in the series with skin reflex (setting [5]), 18.9; in the series with skin reflex (setting [6]) it was 29.5. Also, the results for the “local anaesthetic activity n/n'” value in the series with skin reflex (setting [7]), in the series with skin reflex (setting [8]) and in the series with skin reflex (setting [9]) were 0.3, 0.6 and 1.0, respectively.
As for `C=CCC(Cc1csc2ccccc12)C(=O)OCCN1CCCCCC1` (centres unmarked) [Compound 5], the LD50 in series [1] (ip) was determined as 150 ± 17 mg/kg. Further, in the series on isolated rat duodenum, the “Spasmolytic activity Papaverinic type DE 30” value is reported as 13.0 μg for 20 ml of bath and the EC50 was 1 µg/mL (≈ 2.69 µM). Further, in series [2], the EC50 is 9 µg/mL (≈ 24.2 µM) and the “Spasmolytic activity Atropinic type DE 30” value was 95 μg/20 ml of bath.
With `C=CCC(Cc1csc2ccccc12)C(=O)OCCCN(C)C` (centres unmarked) [Compound 6], in series [1] (ip), the LD50 is ~120 mg/kg. In the series with isolated rat duodenum, the “Spasmolytic activity Papaverinic type DE 30” value is 9.0 μg for 20 ml of bath and the EC50 was 1 µg/mL (≈ 3.02 µM).
On to `O=C(OCCN1CCCC1)C(Cc1cccs1)Cc1csc2ccccc12` (centres unmarked) [Compound 37], for which, in series [1] (ip), the LD50 was determined as 320 ± 21 mg/kg. Also, in the series with isolated rat duodenum, the “Spasmolytic activity Papaverinic type DE 30” value was 6.8 μg for 20 ml of bath and the EC50 was 0.65 µg/mL (≈ 1.63 µM). In series [2], the EC50 is 4 µg/mL (≈ 10 µM) and the “Spasmolytic activity Atropinic type DE 30” value is reported as 50 μg/20 ml of bath.
Take `CCN(CC)CCCOC(=O)C(Cc1csc2ccccc12)CC1CCCO1` (centres unmarked) [Compound 53]: the LD50 was determined as 145 ± 9 mg/kg in series [1] (ip) and 1150 ± 78 mg/kg in series [1] (v.o. (oral) route). Besides, in the series on isolated rat duodenum, the “Spasmolytic activity Papaverinic type DE 30” value is given as 4.5 μg for 20 ml of bath. Further, the figures for the EC50 (in the series with isolated rat duodenum; in series [2]) were 0.4 µg/mL (≈ 0.991 µM) and 7 µg/mL (≈ 17.3 µM), respectively. The “Spasmolytic activity Atropinic type DE 30” value in series [2] is reported as 75 μg/20 ml of bath. Moreover, the results for the “average percentage reduction in oedema after 1 hour” value in series [3] (30 mg/kg oral) and in series [3] (50 mg/kg oral) were 19.4% and 40.6%, respectively. Also, the “average percentage reduction in oedema after 2 hours” value in series [3] (30 mg/kg oral) is given as 15.1%; in series [3] (50 mg/kg oral), 42.9%. For the same compound, the “average number of stimulations for the derivative studied n” value with skin reflex (setting [4]) was determined as 14.2; in the series with skin reflex (setting [5]), 29.1; in the series on skin reflex (setting [6]), 33.2. The “local anaesthetic activity n/n'” value in the series on skin reflex (setting [7]) was 0.5; in the series with skin reflex (setting [8]), 1.0; with skin reflex (setting [9]) it was 1.2.
In the case of `O=C(OCCCN1CCCCC1)C(Cc1csc2ccccc12)CC1CCCO1` (centres unmarked) [Compound 55], the values for the LD50 in series [1] (ip) and in series [1] (v.o. (oral) route) were 85 ± 12 mg/kg and ~450 mg/kg, respectively. Also, in the series with isolated rat duodenum, the “Spasmolytic activity Papaverinic type DE 30” value is given as 3.5 μg for 20 ml of bath. For the same compound, the EC50 in the series on isolated rat duodenum was 0.375 µg/mL (≈ 0.902 µM). Also, the figures for the “average percentage reduction in oedema after 1 hour” value in series [3] (30 mg/kg oral) and in series [3] (50 mg/kg oral) were 12.3% and 40.7%, respectively. In addition, the “average percentage reduction in oedema after 2 hours” value in series [3] (30 mg/kg oral) was 11.3%; in series [3] (50 mg/kg oral) it was 39.8%.
Turning to `O=C(OCCN1CCCCCC1)C(Cc1csc2ccccc12)CC1CCCO1` (centres unmarked) [Compound 51], in series [1] (ip), the LD50 came to 121 ± 10 mg/kg. Moreover, in the series with isolated rat duodenum, the “Spasmolytic activity Papaverinic type DE 30” value was 3.5 μg for 20 ml of bath and the EC50 is 0.325 µg/mL (≈ 0.782 µM). In series [2], the EC50 was 4.75 µg/mL (≈ 11.4 µM) and the “Spasmolytic activity Atropinic type DE 30” value is 61 μg/20 ml of bath.
As to `CCN(CC)CCCOC(=O)C(Cc1cccs1)Cc1csc2ccccc12` (centres unmarked) [Compound 42], in series [1] (ip), the LD50 was found to be 240 ± 18 mg/kg. In addition, in the series with isolated rat duodenum, the “Spasmolytic activity Papaverinic type DE 30” value is on record as 3.5 μg for 20 ml of bath and the EC50 is 0.85 µg/mL (≈ 2.05 µM). In addition, in series [2], the EC50 is 15 µg/mL (≈ 36.1 µM) and the “Spasmolytic activity Atropinic type DE 30” value was 190 μg/20 ml of bath.
For `CCN(CC)CCOC(=O)c1ccc(N)cc1` [procaine hydrochloride, reference compound], the “average number of stimulations for procaine hydrochloride n'” value in the series on skin reflex (procaine hydrochloride 0.50 g/100 ml, intradermal 0.20 ml, hydrochloride) was 30.5 and 33.9 and 36.0 and 27.2 and 29.5 and 29.2 and 33.7 and 28.2.
As for `O=C(OCCN1CCCCC1)C(Cc1csc2ccccc12)CC1CCCO1` (centres unmarked) [Compound 50], in series [1] (ip), the LD50 turned out to be 122 ± 12 mg/kg. Also, in the series on isolated rat duodenum, the “Spasmolytic activity Papaverinic type DE 30” value is 5.0 μg for 20 ml of bath and the EC50 is 0.6 µg/mL (≈ 1.49 µM). For the same compound, in series [2], the EC50 is 3.5 µg/mL (≈ 8.72 µM) and the “Spasmolytic activity Atropinic type DE 30” value was 48 μg/20 ml of bath.
For `CN(C)CCOC(=O)C(Cc1ccccc1)Cc1csc2ccccc12` (centres unmarked) [Compound 24], in the series on isolated rat duodenum, the “Spasmolytic activity Papaverinic type DE 30” value is given as 10.0 μg for 20 ml of bath and the EC50 is 1.25 µg/mL (≈ 3.4 µM). In addition, in series [2], the EC50 was 10 µg/mL (≈ 27.2 µM) and the “Spasmolytic activity Atropinic type DE 30” value is on record as 90 μg/20 ml of bath.
In the case of `O=C(OCCCN1CCCC1)C(Cc1cccs1)Cc1csc2ccccc12` (centres unmarked) [Compound 43], the LD50 in series [1] (ip) amounted to 160 ± 11 mg/kg. In addition, in the series with isolated rat duodenum, the “Spasmolytic activity Papaverinic type DE 30” value is 7.0 μg for 20 ml of bath and the EC50 is 1.25 µg/mL (≈ 3.02 µM).
`O=C(OCCCN1CCCC1)C(Cc1csc2ccccc12)CC1CCCO1` (centres unmarked) [Compound 54]: the LD50 was 100 ± 12 mg/kg in series [1] (ip) and 400 ± 27 mg/kg in series [1] (v.o. (oral) route). In addition, in the series with isolated rat duodenum, the “Spasmolytic activity Papaverinic type DE 30” value is on record as 9.5 μg for 20 ml of bath. For the same compound, the EC50 was 0.6 µg/mL (≈ 1.49 µM) in the series on isolated rat duodenum and 4.5 µg/mL (≈ 11.2 µM) in series [2]. In addition, the “Spasmolytic activity Atropinic type DE 30” value in series [2] is 52 μg/20 ml of bath. In addition, the “average percentage reduction in oedema after 1 hour” value in series [3] (30 mg/kg oral) amounted to 22.4%; in series [3] (50 mg/kg oral), 34.9%. Moreover, the “average percentage reduction in oedema after 2 hours” value in series [3] (30 mg/kg oral) was determined as 16.0%; in series [3] (50 mg/kg oral) it was 45.0%. Moreover, the results for the “average number of stimulations for the derivative studied n” value with skin reflex (setting [4]), with skin reflex (setting [5]) and in the series with skin reflex (setting [6]) were 16.7, 25.7 and 31.4, respectively. In addition, the results for the “local anaesthetic activity n/n'” value in the series on skin reflex (setting [7]), in the series with skin reflex (setting [8]) and in the series on skin reflex (setting [9]) were 0.6, 0.8 and 1.1, respectively.
